Results on ten compounds are retold here after ChEMBL document CHEMBL4411264, “Methionine-Containing Rhabdopeptide/Xenortide-like Peptides from Heterologous Expression of the Biosynthetic Gene Cluster kj12ABC in Escherichia coli” (J Nat Prod, 2018).

Square brackets hold non-standard residues; d marks the D form. Peptide text beside a SMILES is read from it. * marks the point of attachment. NHPhenethyl = c1ccc(CCN*)cc1; NMeM = CN[C@@H](CCSC)C(=O)O; NMeV = CN[C@H](C(=O)O)C(C)C A value given as a limit tells only on which side of the number the result lay.

In one experiment the test system is Trypanosoma cruzi. Put plainly: Antiparasitic activity against Trypanosoma cruzi Tulahuen C4 trypomastigotes infected in rat L6 cells after 96 hrs by CPRG/Nonidet reagent based photometric analysis. The class given is functional, organism-based. Conditions: Tulahuen C4, L6, 96 h.
The test system of another experiment is Plasmodium falciparum. Put plainly: Antiplasmodial activity against Plasmodium falciparum NF54 erythrocytic stage assessed as reduction in [3H]hypoxanthine incorporation preincubated for 48 hrs followed by [3H]hypoxanthine addition and measured after 24 hrs by liquid scintillation counting method. The format is functional, organism-based.
A further experiment deals with Leishmania donovani. Description: Antileishmanial activity against Leishmania donovani MHOM/ET/67/L82 axenic amastigotes after 72 hrs by alamar blue staining based fluorescence assay. The format is functional, organism-based. Conditions: MHOM/ET/67/L82, 72 h.
The subject of a further experiment is L6. Description: Cytotoxicity against rat L6 cells assessed as reduction in cell viability after 72 hrs by Alamar blue staining-based fluorometric analysis. Conditions: L6, 72 h.
Experiment [1] concerns Trypanosoma brucei rhodesiense. Description: Antitrypanosomal activity against Trypanosoma brucei rhodesiense STIB900 bloodstream forms after 72 hrs by Alamar blue staining-based fluorometric analysis. The format is functional, organism-based. Conditions: STIB900, 72 h.

Usually IC50 stands for the concentration needed to halve the response being measured. Regarding `CSCC[C@@H](C(=O)N[C@H](C(=O)N(C)[C@H](C(=O)N(C)[C@H](C(=O)NCCc1ccccc1)C(C)C)C(C)C)C(C)C)N(C)C(=O)[C@@H](N)C(C)C` (H-V[NMeM]V[NMeV][NMeV]-NHPhenethyl), the IC50 in the experiment with Trypanosoma cruzi is 14.2 µM; in the experiment with Plasmodium falciparum it was 3.2 µM; in the experiment on Leishmania donovani, 18.8 µM; with L6 it was 70.8 µM; in experiment [1], 7.3 µM.

Regarding `CSCC[C@@H](C(=O)N(C)[C@H](C(=O)N(C)[C@H](C(=O)NCCc1ccccc1)C(C)C)C(C)C)N(C)C(=O)[C@@H](N)C(C)C` (H-V[NMeM][NMeV][NMeV]-NHPhenethyl), the IC50 with Trypanosoma cruzi was 62.9 µM; in the experiment with Plasmodium falciparum, 7.9 µM; in the experiment on Leishmania donovani it was above 100 µM; in the experiment on L6, 75.2 µM; in experiment [1], 8.5 µM.

Take `CSCC[C@@H](C(=O)N(C)[C@H](C(=O)N(C)[C@H](C(=O)N(C)[C@H](C(=O)NCCc1ccccc1)C(C)C)C(C)C)C(C)C)N(C)C(=O)[C@@H](N)C(C)C` (H-V[NMeM][NMeV][NMeV][NMeV]-NHPhenethyl): the IC50 came out at 12.6 µM with Trypanosoma cruzi; 2.3 µM in the experiment with Plasmodium falciparum; 92.3 µM in the experiment with Leishmania donovani; 23.9 µM with L6; 2.7 µM in experiment [1].

Turning to `CN[C@H](C(=O)N[C@H](C(=O)N(C)[C@@H](CCSC)C(=O)N(C)[C@H](C(=O)N(C)[C@H](C(=O)NCCc1ccccc1)C(C)C)C(C)C)C(C)C)C(C)C` (H-[NMeV]V[NMeM][NMeV][NMeV]-NHPhenethyl), the IC50 with Trypanosoma cruzi is 25.4 µM; in the experiment on Plasmodium falciparum, 4.1 µM; with Leishmania donovani, above 100 µM; in the experiment on L6, 31.3 µM; in experiment [1] it was 5.7 µM.

`CN[C@H](C(=O)N[C@H](C(=O)N(C)[C@H](C(=O)N(C)[C@@H](CCSC)C(=O)NCCc1ccccc1)C(C)C)C(C)C)C(C)C` (H-[NMeV]V[NMeV][NMeM]-NHPhenethyl): the IC50 in the experiment on Trypanosoma cruzi was 75 µM; in the experiment with Plasmodium falciparum, 10.9 µM; in the experiment on Leishmania donovani, above 100 µM; in the experiment with L6, above 100 µM; in experiment [1] it was 12.3 µM.

Consider `CN[C@H](C(=O)N[C@H](C(=O)N(C)[C@H](C(=O)N(C)[C@H](C(=O)NCCc1ccccc1)C(C)C)C(C)C)C(C)C)C(C)C` (H-[NMeV]V[NMeV][NMeV]-NHPhenethyl), for which the IC50 is 69.4 µM in the experiment with Trypanosoma cruzi; 5.3 µM with Plasmodium falciparum; above 100 µM in the experiment with Leishmania donovani; 89.1 µM in the experiment on L6; 10.5 µM in experiment [1].

For the compound `CN[C@H](C(=O)N[C@H](C(=O)N(C)[C@H](C(=O)N(C)[C@H](C(=O)N(C)[C@@H](CCSC)C(=O)NCCc1ccccc1)C(C)C)C(C)C)C(C)C)C(C)C` (H-[NMeV]V[NMeV][NMeV][NMeM]-NHPhenethyl), the half-maximal inhibitory concentration (IC50) in the experiment with Trypanosoma cruzi is 53 µM; in the experiment on Plasmodium falciparum, 6.6 µM; in the experiment with Leishmania donovani, above 100 µM; in the experiment on L6, 71.2 µM; in experiment [1], 4.3 µM.

Regarding `CN[C@H](C(=O)N[C@H](C(=O)N(C)[C@H](C(=O)N(C)[C@H](C(=O)N(C)[C@H](C(=O)NCCc1ccccc1)C(C)C)C(C)C)C(C)C)C(C)C)C(C)C` (H-[NMeV]V[NMeV][NMeV][NMeV]-NHPhenethyl), the IC50 was 26.2 µM in the experiment on Trypanosoma cruzi; 4.6 µM with Plasmodium falciparum; above 100 µM with Leishmania donovani; 56.2 µM in the experiment on L6; 1.4 µM in experiment [1].

In turn, `O=C(Cn1ccnc1[N+](=O)[O-])NCc1ccccc1` [BENZNIDAZOLE] had an IC50 with Trypanosoma cruzi of 2.8 µM.

For the compound `COc1cc([C@@H]2c3cc4c(cc3[C@H](O)[C@H]3COC(=O)[C@H]23)OCO4)cc(OC)c1OC` [PODOFILOX], in the experiment on L6, the IC50 amounted to 0.01 µM.
